Results taken from US8901304B1, “Benzo[D]imidazole derivatives of piperidine and piperazine” (King Fahd University of Petroleum and Minerals, priority 2013, dated 2014).

SMILES	melting point
O=c1[nH]c2ccc(C3CCN(Cc4ccc(-c5ccccc5)cc4)CC3)cc2[nH]1 [5a, 5-(1-(biphenyl-4-ylmethyl)piperidin-4-yl)-1H-benzo[d]imidazol-2(3H)-one]	> 260 °C
O=c1[nH]c2ccc(C3CCN(Cc4cncc(-c5ccccc5)c4)CC3)cc2[nH]1 [5c, 5-(1-((5-phenylpyridin-3-yl)methyl)piperidin-4-yl)-1H-benzo[d]imidazol-2(3H)-one]	236 to 237 °C
O=c1[nH]c2ccc(C3CCN(Cc4cncc(C5=CCCC5)c4)CC3)cc2[nH]1 [5f, 5-(1-((5-cyclopentenylpyridin-3-yl)methyl)piperidin-4-yl)-1H-benzo[d]imidazol-2(3H)-one]	249 to 250 °C

Results, then the compound that gave them:

melting point	SMILES
> 260 °C	O=c1[nH]c2ccc(N3CCN(Cc4ccc(-c5ccccc5)cc4)CC3)cc2[nH]1 [6a, 5-(4-(biphenyl-4-ylmethyl)piperazin-1-yl)-1H-benzo[d]imidazol-2(3H)-one]
> 260 °C	O=c1[nH]c2ccc(N3CCN(CC4(F)C=CC(c5ccccc5)=CC4)CC3)cc2[nH]1 (centres unmarked) [6b, 5-(4-((4-Fluorobiphenyl-4-yl)methyl)piperazin-1-yl)-1H-benzo[d]imidazol-2(3H)-one]
246 to 247 °C	O=c1[nH]c2ccc(N3CCN(Cc4cncc(-c5ccc(F)cc5)c4)CC3)cc2[nH]1 [6d, 5-(4-((5-(4-fluorophenyl)pyridin-3-yl)methyl)piperazin-1-yl)-1H-benzo[d]imidazol-2(3H)-one]
244 to 245 °C	O=c1[nH]c2ccc(N3CCN(Cc4cccc(C5=CCCC5)c4)CC3)cc2[nH]1 [6e, 5-(4-(3-cyclopentenylbenzyl)piperazin-1-yl)-1H-benzo[d]imidazol-2(3H)-one]
255 to 256 °C	O=c1[nH]c2ccc(N3CCN(Cc4cncc(C5=CCCC5)c4)CC3)cc2[nH]1 [6f, 5-(4-((5-cyclopentenylpyridin-3-yl)methyl)piperazin-1-yl)-1H-benzo[d]imidazol-2(3H)-one]
